Data on ten compounds can be found in ChEMBL document CHEMBL1201862, “PubChem BioAssay data set” (2004).

Each structure is given as a SMILES string.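 Compound exposure: 48 hours, 5 concentrations, 96-well plates. Abbreviation: GI50, concentration required for 50% inhibition of growth.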 Calls of active or inactive are those of the source. Rule as the data show it: active = GI50 up to about 1.1 µM and inactive = higher.

What all share (experiment): NCI tumour cell line growth inhibition, 48 h
For test [1], the system named is A498.
Test [2] deals with A549.
The subject of test [3] is ACHN.
In test [4] the test system is BT-549.
Test [5] deals with CCRF-CEM.
The test system of test [6] is COLO 205.
Test [7] deals with K562.
In test [8] the test system is LOX IMVI.
For test [9], the system named is MDA-MB-231.
Test [10] has as its system MDA-MB-435.
Test [11] concerns NCI-H23.
Test [12] deals with NCI-H522.
Test [13] deals with RPMI-8226.
In test [14] the test system is SF-268.
The subject of test [15] is SF-539.
For test [16], the system named is SK-MEL-5.
The subject of test [17] is SNB-19.
Test [18] concerns SR.
The subject of test [19] is SW-620.
For test [20], the system named is T47D.

For the compound `Cc1ccc(S(=O)(=O)N2CCCC2C(=O)O[C@H]2CC[C@H]3CC=C[C@H]32)cc1` (stereo not given in full), the GI50 in test [1] is 23.8 µM (inactive); in [2], 19.4 µM (inactive); in [3] it was 18.7 µM (inactive); in test [4], 47.4 µM (inactive); in test [5], 13.8 µM (inactive); in test [6] it was > 10 µM (inactive). The GI50 is 14.9 µM (inactive) in [7]; 20.7 µM (inactive) in [8]; 63.4 µM (inactive) in test [9]; 80.2 µM (inactive) in test [10]; 35.6 µM (inactive) in test [11]; > 10 µM (inactive) in test [12]. Besides, the GI50 is 17.1 µM (inactive) in test [13]; > 100 µM (inactive) in [14]; > 10 µM (inactive) in test [15]; 19.1 µM (inactive) in test [16]; 76.9 µM (inactive) in [17]; 24.9 µM (inactive) in test [18]. Moreover, the values for the GI50 in test [19] and in test [20] were 31.1 µM (inactive) and 38.3 µM (inactive), respectively.
Consider `CCOc1ccc(C2Oc3c(cccc3OC)C=C2[N+](=O)[O-])cc1OCC` (stereo not given), for which the GI50 in test [1] was 9.57 µM (inactive); in test [2], 17.3 µM (inactive); in test [3] it was 3.71 µM (inactive); in [4] it was 5.96 µM (inactive); in [5] it was 1.35 µM (inactive); in [6] it was 3.68 µM (inactive). Also, the GI50 in test [7] is 1.87 µM (inactive); in [8] it was 1.97 µM (inactive); in test [9], 2.73 µM (inactive); in test [10] it was 2.82 µM (inactive); in test [11], 6.67 µM (inactive); in test [12], 1.84 µM (inactive). Also, the GI50 in test [13] was 2.27 µM (inactive); in [14], 11.6 µM (inactive); in [15], 2.39 µM (inactive); in test [16], 4.8 µM (inactive); in test [17], 15.2 µM (inactive); in test [18], 1.62 µM (inactive). For the same compound, the GI50 in test [19] was 2.06 µM (inactive); in test [20] it was 15.7 µM (inactive).
Take `O=C(O)C(NCc1ccccc1)C(NCc1ccccc1)C(=O)O` (stereo not given): the GI50 in test [1], in test [2], in [3], in [4], in [5] and in test [6] was > 100 µM (inactive) in each case. Further, the GI50 in [7], in test [8], in test [9], in test [10], in test [11] and in test [12] was > 100 µM (inactive) each time. Further, the GI50 in [13], in test [14], in test [15], in [16], in [17] and in test [18] was > 100 µM (inactive) throughout. Besides, the GI50 in [19] and in test [20] was > 100 µM (inactive) throughout.
Regarding `CCN1C(=O)C(C)S/C1=N\NC(=O)CSc1nc2ccccc2c(=O)n1CC` (stereo not given), the GI50 in test [1], in test [2], in [3], in [4], in test [5] and in test [6] was > 100 µM (inactive) each time. The GI50 in test [7] is 98.6 µM (inactive); in [8], > 100 µM (inactive); in test [9], > 100 µM (inactive); in test [10], > 100 µM (inactive); in test [11], > 100 µM (inactive); in test [12], > 100 µM (inactive). The GI50 is > 100 µM (inactive) in [13]; 90.6 µM (inactive) in test [14]; > 100 µM (inactive) in test [15]; > 100 µM (inactive) in test [16]; > 100 µM (inactive) in [17]; > 100 µM (inactive) in [18]. For the same compound, the GI50 in [19] and in [20] was > 100 µM (inactive) each time.
Consider `C=C(CCC/C(C)=C/C=C/[C@@H](C)CCCc1ccoc1)C[C@@H]1OC(=O)[C@H](C)[C@@H]1O`, for which the GI50 in [1] is 7.26 µM (inactive); in test [2] it was 7.29 µM (inactive); in test [3], 7.59 µM (inactive); in test [4], 8.95 µM (inactive); in [5], 9.89 µM (inactive); in [6], 8.43 µM (inactive). The GI50 in test [7] is 21.5 µM (inactive); in [8], 9.71 µM (inactive); in [9] it was 7.48 µM (inactive); in [10] it was 7.96 µM (inactive); in test [11], 8.09 µM (inactive); in [12], 7.08 µM (inactive). The GI50 was 12.8 µM (inactive) in test [13]; 9.31 µM (inactive) in [14]; 8.17 µM (inactive) in test [15]; 6.3 µM (inactive) in test [16]; 9.25 µM (inactive) in test [17]; 10.7 µM (inactive) in test [18]. Moreover, the GI50 in test [19] is 11.4 µM (inactive); in [20] it was 8.36 µM (inactive).
Regarding `CC(C)SC1SCC2C(=O)N(C)C3(CC3C)C(=O)OCC(NC(=O)c3nc4ccccc4cc3O)C(=O)NC(C)C(=O)N(C)C1C(=O)N(C)C1(CC1C)C(=O)OCC(NC(=O)c1nc3ccccc3cc1O)C(=O)NC(C)C(=O)N2C` (stereo not given), the GI50 is < 0.0001 µM (active) in test [1]; < 0.0001 µM (active) in test [2]; < 0.0001 µM (active) in [3]; 0.01 µM (active) in test [4]; < 0.0001 µM (active) in test [5]; < 0.0001 µM (active) in [6]. Moreover, the GI50 in test [7], in test [8], in test [9], in test [10], in test [11] and in [12] was < 0.0001 µM (active) each time. Moreover, the GI50 in test [13], in [14], in test [15], in test [16], in test [17] and in [18] was < 0.0001 µM (active) each time. Also, the GI50 in test [19] and in test [20] was < 0.0001 µM (active) in each case.
As for `Nc1ccc(SC23CC4CC(CC(C4)C2)C3)cc1`, the GI50 in [1], in [2], in test [3], in [4], in [5] and in [6] was > 100 µM (inactive) each time. Also, the GI50 in [7], in [8], in test [9], in [10], in [11] and in [12] was > 100 µM (inactive) in each case. For the same compound, the GI50 in [13] is > 100 µM (inactive); in test [14], 54.5 µM (inactive); in [15], > 100 µM (inactive); in test [16], > 100 µM (inactive); in [17] it was > 100 µM (inactive); in [18], > 100 µM (inactive). Also, the GI50 in test [19] and in test [20] was > 100 µM (inactive) each time.
As for `CC1(/C=C/CCSc2ccccc2)CC(=O)C2CC1C2(C)C` (stereo not given), the GI50 in [1] was 44.7 µM (inactive); in test [2] it was 14.8 µM (inactive); in test [3], 19 µM (inactive); in [4], 9.18 µM (inactive); in [5], 6.49 µM (inactive); in test [6] it was 30 µM (inactive). The GI50 in test [7] is 5.79 µM (inactive); in test [8], 14.8 µM (inactive); in [9] it was 37.4 µM (inactive); in test [10], 19.3 µM (inactive); in test [11], 12.1 µM (inactive); in test [12] it was 13 µM (inactive). Further, the GI50 was 3.79 µM (inactive) in test [13]; 28.5 µM (inactive) in test [14]; 7.96 µM (inactive) in test [15]; 8.71 µM (inactive) in test [16]; 35.8 µM (inactive) in test [17]; 3.19 µM (inactive) in [18]. Further, the values for the GI50 in test [19] and in [20] were 32.5 µM (inactive) and 11.2 µM (inactive), respectively.
In the case of `CC(C)(C)OC(=O)N/C=C1\C(=O)Oc2ccccc2C1=O`, the GI50 was 8.36 µM (inactive) in test [1]; 39.6 µM (inactive) in [2]; 20.2 µM (inactive) in test [3]; 33.7 µM (inactive) in test [4]; > 100 µM (inactive) in [5]; 51.1 µM (inactive) in [6]. The GI50 in test [7] was > 100 µM (inactive); in test [8], 37.8 µM (inactive); in test [9] it was 21.8 µM (inactive); in [10] it was 39.2 µM (inactive); in test [11], 42.4 µM (inactive); in test [12] it was < 0.01 µM (active). Moreover, the GI50 in [13] was > 100 µM (inactive); in test [14] it was 25.2 µM (inactive); in test [15], 14.7 µM (inactive); in test [16], 26.1 µM (inactive); in [17] it was 38 µM (inactive); in [18], > 100 µM (inactive). For the same compound, the results for the GI50 in test [19] and in test [20] were 38.5 µM (inactive) and 24 µM (inactive), respectively.
For `O=C1/C(=C/C=C/c2ccccc2)CCC1CNc1ccccc1` (stereo not given), the GI50 is > 27 µM (inactive) in [1]; > 66.2 µM (inactive) in test [2]; 76.9 µM (inactive) in test [3]; 32.1 µM (inactive) in [4]; 3.48 µM (inactive) in test [5]; 28.9 µM (inactive) in test [6]. For the same compound, the GI50 in test [7] is 2.71 µM (inactive); in test [8], 18.6 µM (inactive); in [9], 22 µM (inactive); in test [10] it was 40.8 µM (inactive); in [11], 27.7 µM (inactive); in test [12], 9.62 µM (inactive). Moreover, the GI50 was 1.59 µM (inactive) in test [13]; 36.7 µM (inactive) in test [14]; > 54.5 µM (inactive) in [15]; 67 µM (inactive) in test [16]; > 55 µM (inactive) in test [17]; 3.52 µM (inactive) in test [18]. Also, the GI50 in test [19] was 18.4 µM (inactive); in test [20] it was 26.2 µM (inactive).
